Experimental data: patent US8765184B2 (Stanipharm, priority 2009, dated 2014)

Test: Stability of the active substance throughout the process by high performance liquid chromatography
Assay type: physicochemical
Settings: HPLC; purity/titre and related substance profile compared with the starting product, both tests

In the case of CO[C@H]1C[C@@H]2CC[C@@H](C)[C@@](O)(O2)C(=O)C(=O)N2CCCC[C@H]2C(=O)O[C@H]([C@H](C)C[C@@H]2CC[C@@H](O)[C@H](OC)C2)CC(=O)[C@H](C)/C=C(\C)[C@@H](O)[C@@H](OC)C(=O)[C@H](C)C[C@H](C)/C=C/C=C/C=C/1C [sirolimus], the “stability throughout the process” value is reported as “good stability”.
